Measured values reported in PubChem BioAssay AID330 (DTP/NCI, 2004).
Values joined by “and” are separate entries in the source; they are usually repeats but may differ in a detail not shown here. Equal entries are not always repeated. Inconclusive results and toxic doses are left out. Rule for the calls: active = survival T/C of 150% or more; inactive = T/C below 125% in these data.

Tested on: P388 leukemia ip, CD2F1 mice, survival T/C
Assay: NCI In Vivo Anticancer Drug Screen. Data for tumor model P388 Leukemia (intraperitoneal) in CD2F1 (CDF1) mice
Conditions: endpoint: median survival time, higher = longer survival
Outline: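 Mice carrying the transplanted tumor received test compound or vehicle. Survival was recorded in each group, and the value is the treated-group measurement divided by that of the vehicle-treated control group.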

[1] = dose: 12.5 mg/kg/injection, schedule: Q01DX005 (ip), vehicle: saline with Tween-80
[2] = dose: 25.0 mg/kg/injection, schedule: Q01DX005 (ip), vehicle: saline with Tween-80
[3] = dose: 100.0 mg/kg/injection, schedule: Q04DX003 (ip), vehicle: saline
[4] = dose: 200.0 mg/kg/injection, schedule: Q04DX003 (ip), vehicle: saline
[5] = dose: 400.0 mg/kg/injection, schedule: Q04DX003 (ip), vehicle: saline
[6] = dose: 50.0 mg/kg/injection, schedule: Q01DX005 (ip), vehicle: saline with Tween-80
[7] = dose: 100.0 mg/kg/injection, schedule: Q01DX005 (ip), vehicle: saline with Tween-80
[8] = dose: 100.0 mg/kg/injection, schedule: Q01DX009 (ip), vehicle: water
[9] = dose: 100.0 mg/kg/injection, schedule: Q04DX002 (ip), vehicle: Klucel (hydroxypropylcellulose) (HPC)
[10] = dose: 200.0 mg/kg/injection, schedule: Q04DX002 (ip), vehicle: Klucel (hydroxypropylcellulose) (HPC)
[11] = dose: 50.0 mg/kg/injection, schedule: Q01DX009 (ip), vehicle: Klucel (hydroxypropylcellulose) (HPC)
[12] = dose: 100.0 mg/kg/injection, schedule: Q01DX009 (ip), vehicle: Klucel (hydroxypropylcellulose) (HPC)
[13] = dose: 60.0 mg/kg/injection, schedule: Q01DX005 (ip), vehicle: saline with Tween-80

Measured: T/C

CCOC(=O)c1n[nH]c(C)c1CC(N)c1ccccc1 (stereo unspecified)
inactive: [1] 100 % of control | [2] 96 % of control

CCOc1ccc(-n2c(=O)c(N=Nc3ccccc3OC)c(O)n(-c3ccccc3Cl)c2=S)cc1
inactive: dose: 100.0 mg/kg/injection, schedule: Q01DX001 (ip), vehicle: Klucel (hydroxypropylcellulose) (HPC) 102 % of control | dose: 200.0 mg/kg/injection, schedule: Q01DX001 (ip), vehicle: Klucel (hydroxypropylcellulose) (HPC) 101 % of control | dose: 400.0 mg/kg/injection, schedule: Q01DX001 (ip), vehicle: Klucel (hydroxypropylcellulose) (HPC) 105 % of control

CCOC(=O)Cc1nnc(N)s1
inactive: dose: 50.0 mg/kg/injection, schedule: Q04DX003 (ip), vehicle: saline 94 % of control | [3] 95 % of control | [4] 110 % of control | [5] 104 % of control

C=C1C(=O)OC2C1CCC(C)C1C=CC(=O)C12C (stereo unspecified)
inactive: dose: 25.0 mg/kg/injection, schedule: Q04DX002 (ip), vehicle: saline with Tween-80 115 % of control | dose: 50.0 mg/kg/injection, schedule: Q04DX002 (ip), vehicle: saline with Tween-80 114 % of control | dose: 100.0 mg/kg/injection, schedule: Q04DX002 (ip), vehicle: saline with Tween-80 119 % of control

Cc1nc(Nc2ccccc2)c2c(-c3ccccc3)c[nH]c2n1
inactive: dose: 50.0 mg/kg/injection, schedule: Q01DX005 (ip), vehicle: Klucel (hydroxypropylcellulose) (HPC) 89 % of control | dose: 100.0 mg/kg/injection, schedule: Q01DX005 (ip), vehicle: Klucel (hydroxypropylcellulose) (HPC) 90 % of control | dose: 200.0 mg/kg/injection, schedule: Q01DX005 (ip), vehicle: Klucel (hydroxypropylcellulose) (HPC) 100 % of control

CN(Cc1cnc2nc(N)nc(N)c2n1)c1c(Cl)cc(C(=O)NC(CCC(=O)O)C(=O)O)cc1Br (stereo unspecified)
active: dose: 0.3 mg/kg/injection, schedule: Q01DX003 (ip), vehicle: saline 183 % of control | dose: 0.4 mg/kg/injection, schedule: Q01DX003 (ip), vehicle: saline 177 % of control | dose: 100.0 mg/kg/injection, schedule: Q04DX003 (ip), vehicle: saline with Tween-80 170 % of control | dose: 200.0 mg/kg/injection, schedule: Q04DX003 (ip), vehicle: saline with Tween-80 170 % of control | dose: 400.0 mg/kg/injection, schedule: Q04DX003 (ip), vehicle: saline with Tween-80 162 % of control and 195 % of control | dose: 600.0 mg/kg/injection, schedule: Q04DX003 (ip), vehicle: saline with Tween-80 154 % of control

CCOC(=O)CC1CC(=O)C(C(=O)OCC)C=C1C(=O)OCC (stereo unspecified)
inactive: [6] 94 % of control | [7] 98 % of control

COC(=O)/C=C/CNC(C)C
inactive: dose: 25.0 mg/kg/injection, schedule: Q01DX009 (ip), vehicle: water 101 % of control | dose: 50.0 mg/kg/injection, schedule: Q01DX009 (ip), vehicle: water 99 % of control | [8] 108 % of control | dose: 200.0 mg/kg/injection, schedule: Q01DX009 (ip), vehicle: water 115 % of control | dose: 400.0 mg/kg/injection, schedule: Q01DX009 (ip), vehicle: water 97 % of control

Cc1cc(=O)n(-c2ccc(-c3ccc(-n4c(C)c(C(=O)O)c(C)cc4=O)cc3)cc2)c(C)c1C(=O)O
inactive: [6] 102 % of control | [7] 100 % of control | dose: 200.0 mg/kg/injection, schedule: Q01DX005 (ip), vehicle: saline with Tween-80 106 % of control

CC(C)(C)c1ccc(C(=O)NNC(O)C(F)(F)F)cc1 (stereo unspecified)
inactive: [9] 101 % of control | [10] 103 % of control

c1ccc(C2c3ccccc3C(c3ccccc3)(c3ccccc3)c3ccccc32)cc1
inactive: dose: 12.5 mg/kg/injection, schedule: Q01DX009 (ip), vehicle: Klucel (hydroxypropylcellulose) (HPC) 91 % of control | dose: 25.0 mg/kg/injection, schedule: Q01DX009 (ip), vehicle: Klucel (hydroxypropylcellulose) (HPC) 95 % of control | [11] 94 % of control | [12] 91 % of control

Cc1c(N=Nc2cccc(Cl)c2)c(-c2ccccc2)nn1C(N)=S
inactive: dose: 100.0 mg/kg/injection, schedule: Q01DX001 (ip), vehicle: saline with Tween-80 89 % of control | dose: 200.0 mg/kg/injection, schedule: Q01DX001 (ip), vehicle: saline with Tween-80 92 % of control | dose: 400.0 mg/kg/injection, schedule: Q01DX001 (ip), vehicle: saline with Tween-80 90 % of control

COc1cccc(/C=C2/SC(=S)N(Cc3ccco3)C2=O)c1OC
inactive: [1] 100 % of control | [2] 90 % of control | [6] 90 % of control and 91 % of control

COc1ccc(/C=N/NC(=S)NC23CC4CC(CC(C4)C2)C3)cc1OC
inactive: dose: 15.0 mg/kg/injection, schedule: Q01DX005 (ip), vehicle: saline with Tween-80 93 % of control | dose: 30.0 mg/kg/injection, schedule: Q01DX005 (ip), vehicle: saline with Tween-80 89 % of control | [13] 89 % of control

CN=C(c1ccc(NC(=O)c2cccc(C(=O)Nc3ccc(C(=NC)N(C)C4CCCCC4)cc3)c2)cc1)N(C)C1CCCCC1
inactive: dose: 1.56 mg/kg/injection, schedule: Q01DX005 (ip), vehicle: Klucel (hydroxypropylcellulose) (HPC) 104 % of control | dose: 3.12 mg/kg/injection, schedule: Q01DX005 (ip), vehicle: Klucel (hydroxypropylcellulose) (HPC) 102 % of control

O=C(Nc1ccc([N+](=O)[O-])cc1)Nc1nccs1
inactive: dose: 12.5 mg/kg/injection, schedule: Q01DX009 (ip), vehicle: distilled water + Tween-80 108 % of control and 112 % of control and 115 % of control | dose: 25.0 mg/kg/injection, schedule: Q01DX009 (ip), vehicle: distilled water + Tween-80 120 % of control | dose: 50.0 mg/kg/injection, schedule: Q01DX009 (ip), vehicle: distilled water + Tween-80 119 % of control

O=S(=O)(O)O
inactive: dose: 30.0 mg/kg/injection, schedule: Q01DX009 (ip), vehicle: water 108 % of control | [8] 86 % of control

O=C(O)C(Cc1ccc(O)cc1)NC(c1ccccc1)P(=O)(O)O (stereo unspecified)
inactive: [13] 108 % of control | dose: 120.0 mg/kg/injection, schedule: Q01DX005 (ip), vehicle: saline with Tween-80 98 % of control | dose: 240.0 mg/kg/injection, schedule: Q01DX005 (ip), vehicle: saline with Tween-80 99 % of control

FC(F)(F)c1ccccc1N=Cc1ccc(C=Nc2ccccc2C(F)(F)F)cc1
inactive: [11] 98 % of control | [12] 91 % of control

N#CC(=C1SCS1)[N+](=O)[O-]
inactive: dose: 1.56 mg/kg/injection, schedule: Q01DX009 (ip), vehicle: saline 121 % of control | dose: 3.13 mg/kg/injection, schedule: Q01DX009 (ip), vehicle: saline with Tween-80 121 % of control

O=C(NCCc1ccccn1)c1cc(Cl)ccc1O
inactive: [9] 95 % of control | [10] 103 % of control | dose: 400.0 mg/kg/injection, schedule: Q04DX002 (ip), vehicle: Klucel (hydroxypropylcellulose) (HPC) 100 % of control

O=P1(NCCCl)OCCCN1CCCl (stereo unspecified)
inactive: dose: 200.0 mg/kg/injection, schedule: Q01DX009 (ip), vehicle: saline 111 % of control
active: dose: 25.0 mg/kg/injection, schedule: Q01DX009 (ip), vehicle: saline 184 % of control | dose: 30.0 mg/kg/injection, schedule: Q01DX005 (iv), vehicle: saline 157 % of control | dose: 50.0 mg/kg/injection, schedule: Q01DX009 (ip), vehicle: saline 270 % of control | dose: 60.0 mg/kg/injection, schedule: Q01DX005 (ip), vehicle: saline 195 % of control | dose: 60.0 mg/kg/injection, schedule: Q01DX005 (iv), vehicle: saline 186 % of control | dose: 100.0 mg/kg/injection, schedule: Q01DX009 (ip), vehicle: saline 282 % of control | dose: 120.0 mg/kg/injection, schedule: Q01DX005 (ip), vehicle: saline 280 % of control | dose: 120.0 mg/kg/injection, schedule: Q01DX005 (iv), vehicle: saline 241 % of control | dose: 240.0 mg/kg/injection, schedule: Q01DX005 (ip), vehicle: saline 280 % of control | dose: 240.0 mg/kg/injection, schedule: Q01DX005 (iv), vehicle: saline 252 % of control | dose: 289.0 mg/kg/injection, schedule: Q01DX001 (ip), vehicle: saline 233 % of control | dose: 431.0 mg/kg/injection, schedule: Q01DX001 (ip), vehicle: saline 582 % of control | dose: 538.0 mg/kg/injection, schedule: Q01DX001 (ip), vehicle: saline 582 % of control | dose: 646.0 mg/kg/injection, schedule: Q01DX001 (ip), vehicle: saline 242 % of control

NC(=O)NC1OC(CO)C(O)C(O)C1O (stereo unspecified)
inactive: [3] 95 % of control | [4] 95 % of control | [5] 100 % of control
